The experiment deals with PYL receptor triple mutant (pyr1;pyl1;pyl4) seeds. As to the kind of experiment: Seed germination, PYL receptor triple mutant. In kind it is in vivo, Arabidopsis thaliana. Conditions: 1 μM in 1/2 MS solid medium, 6 days after sowing; FIG. 3. Here is the method:
Take the compounds 0428 and 0224 of the present invention as examples. The seeds of Arabidopsis thaliana Col-0 ecotype and PYL receptor triple mutant (pyr1;pyl1;pyl4) were sterilized with NaClO and placed at 4° C. for 3 days of the vernalization, and then sown in ½ MS solid medium containing 1 μM (+)-ABA/0224 compound or 0.05% DMSO (control) or in ½ MS solid medium containing 2 μM (+)-ABA/compound 0428 of the present invention or 0.05% DMSO (control). Two lines of plant were sown simultaneously on each medium of 6 cm diameter, with 15-20 seeds sown for each line and 4 replicates for each compound. Culture medium was placed at 22° C. with long-day culture. The seeds germinated on a solid medium containing 1 μM (+)-ABA/0224 compound were photographed 6 days after sowing, and seeds germinated on solid medium containing 2 μM (+)-ABA/0428 compound were photographed 9 days after sowing.

Molecules are shown by their SMILES. “Also recorded” adds a separate entry of the source.

Regarding `CCCN1C(=O)OC(C)c2cc(NS(=O)(=O)Cc3c(F)c(F)c(C)c(F)c3F)ccc21` (stereo not shown) [Compound 0224], the “inhibition of seed germination of pyr1;pyl1;pyl4 triple mutant” value is on record as “significantly reduced; also recorded: could not inhibit the seed germination of PYR/PYL triple mutant”.

For the origin of these results see patent US11076597B2, “High stress resistant plant growth regulator and preparation method and use thereof” (SHANGHAI INSTITUTES FOR BIOLOGICAL SCIENCES, CHINESE …, priority 2015, dated 2021).
